Legend:
Assay in all cases: MTS proliferation assay
Assay type in all cases: cell-based, human
SW620 = system: SW620
Description: (§1) Cell lines and in vitro cytotoxicity assay. Cells were maintained at 37° C. under standard cell culture conditions. Cells were plated at an optimized density for each cell line per well in 96-well microtiter FALCON® plates, incubated overnight, and then exposed to a serial dilution of drug. […] The results were expressed as an IC50, which is the drug concentration required to inhibit cell proliferation to 50% of that of untreated control cells. The mean IC50 and standard deviation (SD) from multiple tests for each cell line were calculated.
(§2) In vitro Cellular Proliferation Assays.

LS-180 = system: LS-180
Description: as §1, §2

SW1116 = system: SW1116
Description: as §1, §2

KM12SM = system: KM12SM
Description: as §1, §2

NCI-H508 = system: NCI-H508
Description: as §1, §2

GEO = system: GEO
Description: as §1, §2

SNU-407 = system: SNU-407
Description: as §1, §2

HCT116SS42 = system: HCT116SS42
Description: as §1, §2

LS174T = system: LS174T
Description: as §1, §2

HT-29 = system: HT-29
Description: as §1, §2

RKO PM = system: RKO PM
Description: as §1, §2

OUMS-23 = system: OUMS-23
Description: as §1, §2

SW837 = system: SW837
Description: as §1, §2

WIDR = system: WIDR
Description: as §1, §2

HCC-56 = system: HCC-56
Description: as §1, §2

LoVo = system: LoVo
Description: as §1, §2

RKO = system: RKO
Description: as §1, §2

LS-513 = system: LS-513
Description: as §1, §2

COLO320DM = system: COLO320DM
Description: as §1, §2

SW1463 = system: SW1463
Description: as §1, §2

CW-2 = system: CW-2
Description: as §1, §2

CCD18CO = system: CCD18CO
Description: as §1, §2

DLD-1 = settings: for IC50: Homo sapiens
Description: as §1, §2

GP2D = system: GP2D
Description: as §1, §2

LS-123 = system: LS-123
Description: as §1, §2

HCC2998 = system: HCC2998
Description: as §1, §2

SNU-81 = system: SNU-81
Description: as §1, §2

DIFI = system: DIFI
Description: as §1, §2

NCI-H716 = system: NCI-H716
Description: as §1, §2

[1] = preliminary panel of 45 CRC cell lines

Question: What does the source list for `C[C@@]1(C(=O)Nc2ccc(F)nc2)CCCN1c1nc(Nc2cc(C3CC3)n[nH]2)c2cccn2n1` [BMS-754807, (2S)-1-(4-((5-cyclopropyl-1H-pyrazol-3-yl)amino)pyrrolo[2,1-f][1,2,4]triazin-2-yl)-N-(6-fluoro-3-pyridinyl)-2-methyl-2-pyrrolidinecarboxamide]?
Answer: IC50 (SW620; Homo sapiens, SW-620, 72 h): 1.83 µM; Sensitivity Classes (SW620; SW620): R (“R” refers Resistant); Sensitivity to BMS-754807 (SW620; SW620, preliminary panel of 45 CRC cell lines): Resistant (resistant cell lines had IC50 values of >50 nmol/L); IC50 (LS-180; Homo sapiens, LS180, 72 h): 0.629 µM; Sensitivity to BMS-754807 (LS-180; LS180, preliminary panel of 45 CRC cell lines): Resistant (resistant cell lines had IC50 values of >50 nmol/L); Sensitivity Classes (LS-180; LS-180): R (“R” refers Resistant); IC50 (SW1116; Homo sapiens, SW 1116, 72 h): 0.024 µM; Sensitivity Classes (SW1116; SW1116): S (“S” refers Sensitive); Sensitivity to BMS-754807 (SW1116; SW1116, preliminary panel of 45 CRC cell lines): Sensitive (a sensitive cell line was classified as one with an IC50 of ≦50 nmol/L); IC50 (KM12SM; Homo sapiens, 72 h): 0.037 µM; Sensitivity Classes (KM12SM; KM12SM): S (“S” refers Sensitive); Sensitivity to BMS-754807 (KM12SM; KM12SM, preliminary panel of 45 CRC cell lines): Sensitive (a sensitive cell line was classified as one with an IC50 of ≦50 nmol/L); Sensitivity to BMS-754807 (NCI-H508; H508, preliminary panel of 45 CRC cell lines): Sensitive (a sensitive cell line was classified as one with an IC50 of ≦50 nmol/L); IC50 (NCI-H508; Homo sapiens, NCI-H508, 72 h): 0.011 µM; Sensitivity Classes (NCI-H508; NCI-H508): S (“S” refers Sensitive); Sensitivity Classes (GEO; GEO): R (“R” refers Resistant); Sensitivity to BMS-754807 (GEO; GEO, preliminary panel of 45 CRC cell lines): Intermediate (remaining 30 cell lines classified as Intermediate or resistant); IC50 (GEO; Homo sapiens, 72 h): 0.407 µM; IC50 (SNU-407; Homo sapiens, SNU-407, 72 h): 0.013 µM; Sensitivity Classes (SNU-407; SNU-407): S (“S” refers Sensitive); Sensitivity Classes (HCT116SS42; HCT116SS42): R (“R” refers Resistant); Sensitivity to BMS-754807 (HCT116SS42; HCT116SS42, preliminary panel of 45 CRC cell lines): Intermediate (remaining 30 cell lines classified as Intermediate or resistant); IC50 (HCT116SS42; Homo sapiens, 72 h): 0.427 µM; Sensitivity Classes (LS174T): R (“R” refers Resistant); IC50 (LS174T; Homo sapiens, 72 h): 0.358 µM; Sensitivity to BMS-754807 (LS174T; [1]): Intermediate (remaining 30 cell lines classified as Intermediate or resistant); Sensitivity to BMS-754807 (HT-29; HT29, preliminary panel of 45 CRC cell lines): Intermediate (remaining 30 cell lines classified as Intermediate or resistant); Sensitivity Classes (HT-29; HT-29): R (“R” refers Resistant); IC50 (HT-29; Homo sapiens, HT-29, 72 h): 0.451 µM; IC50 (RKO PM; Homo sapiens, 72 h): 0.857 µM; Sensitivity Classes (RKO PM; RKO PM): R (“R” refers Resistant); Sensitivity to BMS-754807 (RKO PM; RKO PM, preliminary panel of 45 CRC cell lines): Resistant (resistant cell lines had IC50 values of >50 nmol/L); IC50 (OUMS-23; Homo sapiens, OUMS-23, 72 h): 2.22 µM; Sensitivity Classes (OUMS-23; OUMS-23): R (“R” refers Resistant); IC50 (SW837; Homo sapiens, SW837, 72 h): 1.89 µM; Sensitivity Classes (SW837; SW837): R (“R” refers Resistant); Sensitivity to BMS-754807 (SW837; SW837, preliminary panel of 45 CRC cell lines): Resistant (resistant cell lines had IC50 values of >50 nmol/L); IC50 (WIDR; Homo sapiens, WiDr, 72 h): 0.194 µM; Sensitivity Classes (WIDR; WIDR): R (“R” refers Resistant); Sensitivity to BMS-754807 (WIDR; WIDR, preliminary panel of 45 CRC cell lines): Intermediate (remaining 30 cell lines classified as Intermediate or resistant); Sensitivity Classes (HCC-56; HCC-56): S (“S” refers Sensitive); IC50 (HCC-56; Homo sapiens, 72 h): 0.005 µM; IC50 (LoVo; Homo sapiens, LoVo, 72 h): 3.87 µM; Sensitivity to BMS-754807 (LoVo; LOVO, preliminary panel of 45 CRC cell lines): Resistant (resistant cell lines had IC50 values of >50 nmol/L); Sensitivity Classes (LoVo; LoVo): R (“R” refers Resistant); Sensitivity Classes (RKO): R (“R” refers Resistant); IC50 (RKO; Homo sapiens, 72 h): 0.857 µM; Sensitivity to BMS-754807 (RKO; [1]): Resistant (resistant cell lines had IC50 values of >50 nmol/L); IC50 (LS-513; Homo sapiens, LS-513, 72 h): 0.015 µM; Sensitivity to BMS-754807 (LS-513; LS513, preliminary panel of 45 CRC cell lines): Sensitive (a sensitive cell line was classified as one with an IC50 of ≦50 nmol/L); Sensitivity Classes (LS-513; LS-513): S (“S” refers Sensitive); Sensitivity Classes (COLO320DM; COLO320DM): S (“S” refers Sensitive); Sensitivity to BMS-754807 (COLO320DM; COLO320DM, preliminary panel of 45 CRC cell lines): Sensitive (a sensitive cell line was classified as one with an IC50 of ≦50 nmol/L); IC50 (COLO320DM; Homo sapiens, COLO 320DM, 72 h): 0.041 µM; IC50 (SW1463; Homo sapiens, SW1463, 72 h): 0.016 µM; Sensitivity Classes (SW1463; SW1463): S (“S” refers Sensitive); Sensitivity to BMS-754807 (SW1463; SW1463, preliminary panel of 45 CRC cell lines): Sensitive (a sensitive cell line was classified as one with an IC50 of ≦50 nmol/L); Sensitivity Classes (CW-2; CW-2): R (“R” refers Resistant); IC50 (CW-2; Homo sapiens, CW-2, 72 h): 0.586 µM; Sensitivity Classes (CCD18CO; CCD18CO): R (“R” refers Resistant); Sensitivity to BMS-754807 (CCD18CO; CCD18CO, preliminary panel of 45 CRC cell lines): Resistant (resistant cell lines had IC50 values of >50 nmol/L); IC50 (CCD18CO; Homo sapiens, CCD-18Co, 72 h): 2.56 µM; Sensitivity Classes (DLD-1; DLD-1): R (“R” refers Resistant); Sensitivity to BMS-754807 (DLD-1; DLD-1, preliminary panel of 45 CRC cell lines): Resistant (resistant cell lines had IC50 values of >50 nmol/L); IC50 (DLD-1; DLD-1): 0.666 µM; IC50 (DLD-1; DLD-1, 72 h): 0.666 µM; Sensitivity Classes (GP2D; GP2D): R (“R” refers Resistant); IC50 (GP2D; Homo sapiens, GP2d, 72 h): 0.261 µM; IC50 (LS-123; Homo sapiens, LS-123, 72 h): 4.47 µM; Sensitivity to BMS-754807 (LS-123; LS123, preliminary panel of 45 CRC cell lines): Resistant (resistant cell lines had IC50 values of >50 nmol/L); Sensitivity Classes (LS-123; LS-123): R (“R” refers Resistant); Sensitivity Classes (HCC2998; HCC2998): R (“R” refers Resistant); IC50 (HCC2998; Homo sapiens, HCC 2998, 72 h): 0.38 µM; IC50 (SNU-81; Homo sapiens, 72 h): 5 µM; Sensitivity Classes (SNU-81; SNU-81): R (“R” refers Resistant); Sensitivity Classes (DIFI; DIFI): S (“S” refers Sensitive); Sensitivity to BMS-754807 (DIFI; DIFI, preliminary panel of 45 CRC cell lines): Sensitive (a sensitive cell line was classified as one with an IC50 of ≦50 nmol/L); IC50 (DIFI; Homo sapiens, DiFi, 72 h): 0.012 µM; IC50 (NCI-H716; Homo sapiens, NCI-H716, 72 h): 0.217 µM; Sensitivity Classes (NCI-H716; NCI-H716): R (“R” refers Resistant); Sensitivity to BMS-754807 (NCI-H716; NCI-H716, preliminary panel of 45 CRC cell lines): Intermediate (remaining 30 cell lines classified as Intermediate or resistant)

— patent publication US20140309229A1, “METHODS FOR SELECTING AND TREATING CANCER IN PATIENTS WITH IGF-1R/IR INHIBITORS” (priority 2011, published 2014)
